Test results: article PMC12656565, “In Vitro and Ultrastructural Evaluation of the Cytotoxic and Antileishmanial Activities of Thiosemicarbazone Compounds Against Promastigotes and Axenic Amastigotes of Leishmania infantum” (Tropical Medicine and Infectious Disease, 2025)
“Also recorded” adds a separate entry of the source.

Key:
[1] = test system: L. infantum promastigote forms; test: Ultrastructural analysis (SEM/TEM) of promastigote forms; format: cell-based, Leishmania infantum; conditions: promastigotes, 1× and 2× IC50 (Amphotericin B 1× IC50), 72 h
Procedure: Ultrastructural analysis of promastigote and axenic amastigote forms of L. infantum was performed as described by Silva et al., with adaptations. Promastigote and amastigote forms were cultured in modified Schneider’s medium supplemented with 10% fetal bovine serum (FBS), in a BOD incubator at 26 °C and 32 °C, respectively, until reaching the stationary growth phase (72 h). After adjusting cell concentration to 1 × 10^7 cells/mL, samples were incubated with compounds LT-73, LT-75, and amphotericin B at concentrations corresponding to the IC50 and 2× IC50 previously determined, as well as a DMSO control (1% diluted), for 72 h. During incubation, daily microscopic monitoring of cell morphology was performed.
After this period, cells were washed with PBS (phosphate-buffered saline) and fixed in a solution containing 2.5% glutaraldehyde and 4% formaldehyde in 0.1 M phosphate buffer (pH 7.4) for 24 h at 4 °C. For transmission electron microscopy (TEM), cells were post-fixed in 1% osmium tetroxide (OsO4) for 2 h in 0.1 M phosphate buffer (pH 7.2), dehydrated in increasing acetone series (30%, 50%, 70%, 90%, and 3× 100%), embedded in EPON resin, and subjected to ultrathin sectioning using an ultramicrotome. Sections were contrasted with 2% uranyl acetate for 30 min and 2.5% lead citrate for 10 min, then analyzed using a Tecnai G2 Spirit TEM (FEI).
For scanning electron microscopy (SEM), after primary fixation, cells were adhered to coverslips pre-treated with poly-L-lysine for 30 min. Then, cells were washed three times with 0.1 M phosphate buffer (pH 7.2), post-fixed in 1% OsO4 for 2 h, dehydrated in increasing ethanol series (30%, 50%, 70%, 90%, and 3× 100%), subjected to critical point drying using an HCP-2 device (Hitachi (Tokyo, Japan)), and gold-coated (20 nm) using a JFC-1100 device ((JEOL Ltd., Tokyo, Japan)). […]
All images were acquired under standardized laboratory protocols. A minimum of 50 parasites per condition were analyzed by two blinded investigators and no visible precipitation or crystallization occurred during fixation.

[2] = test system: Leishmania infantum promastigote forms (MHOM/BR/BH46); test: In vitro leishmanicidal activity against promastigotes (Neubauer chamber counting); format: cell-based; conditions: for SI (CC50/IC50): CC50 J774 macrophages / IC50 promastigotes; for IC50 / inhibition at 20 µM: Leishmania infantum; for IC50: 72 h, L. infantum promastigotes, linear regression; for inhibition at 20 µM: lowest concentration tested in the promastigote series (20–400 µM)
Procedure: For this study, the Leishmania infantum strain MHOM/BR/BH46 was used. It was maintained by cryopreservation in liquid nitrogen, using a preservation solution containing 10% dimethyl sulfoxide (DMSO) and 90% fetal bovine serum (FBS). For the experiments, the strain was reactivated and maintained in continuous culture in modified Schneider’s Drosophila medium, supplemented with 10% heat-inactivated fetal bovine serum (FBS), at a temperature of 26 °C, with subcultures performed every 72 h. The promastigote form was used for the in vitro assays, with growth observed and monitored through parasite counting using a Neubauer chamber (iNCYTO CChip DHC-N01, Cheonan-Si, Republic of Korea).
The in vitro leishmanicidal activity of compounds LT-70, LT-73, LT-75, LT-89, and amphotericin B was determined as described by Aliança et al., with adaptations. Promastigote forms of L. infantum (MHOM/BR/BH46) were maintained in Schneider’s medium supplemented with 10% fetal bovine serum (FBS), incubated at 26 °C. For experiments, parasites were subcultured and grown for 72 h until reaching stationary phase. Subsequently, they were adjusted to a concentration of 1 × 10^6 parasites/mL. Cultures were then incubated in the presence of the tested compounds (20–400 µM) and Amphotericin B was tested from 0.01 to 1.0 µM in preliminary range-finding assays, confirming an IC50 of 0.04 µM, both prepared in DMSO (final DMSO concentration < 1%), as well as a control containing only the diluent. Analyses were performed in technical triplicate and biological duplicate. Cultures were maintained at 26 °C for 72 h, with daily parasite counts performed using a Neubauer chamber. The median inhibitory concentration (IC50) was determined after 72 h by linear regression using SPSS 25.0 software for Mac. All assays were performed in 24-well flat-bottom plates (2 mL final volume per well), with parasite inoculum verified by Neubauer counting chamber. The compounds LT-73 and LT-75 were selected based on their best leishmanicidal performance and respective selectivity index (SI), calculated as the ratio between the cytotoxic concentration for 50% of host cells (CC50) and the IC50 obtained for parasites. […] IC50 and CC50 values were obtained by linear regression using […]. This method has been validated in our previous thiosemicarbazone publications. Each assay was conducted in triplicate across two independent biological experiments performed on separate days to ensure reproducibility and minimize batch effects. MTT was selected for consistency with the validated thiosemicarbazone protocol by Jacob et al., ensuring methodological coherence with prior data.

[3] = test system: L. infantum promastigote cells; test: Mitochondrial membrane potential (Rhodamine 123, flow cytometry); format: cell-based, Leishmania infantum; conditions: for Variability Index (VI), range: range over the tested concentrations (1× and 2× IC50; H2O2 control)
Procedure: To evaluate the effects of compounds on the mitochondrial membrane potential (ΔΨm) of Leishmania infantum, the cationic probe Rhodamine 123 (Rod 123) was used through quantitative flow cytometry analysis. […] After incubation, cells were centrifuged at 3000× g for 5 min, and supernatants discarded. […] Hydrogen peroxide (H2O2) at 1 μM was used as positive control, previously described in the literature as an inducer of mitochondrial potential loss. Cells were analyzed by flow cytometry on the FACSCalibur equipment (Becton & Dickinson, San José, CA, USA), with excitation at 488 nm and detection at 505/534 nm. Fifty thousand events per sample were acquired. Data were expressed as percentage of cells stained with Rhodamine 123 for each tested condition. Fluorescence variation was quantified by Variation Index (VI), calculated by the equation: VI = (MT − MC)/MC, where MT corresponds to the median fluorescence of treated cells and MC to the median of control cells (untreated).

Row | SMILES | TEM ultrastructural alterations [1] | SI (CC50/IC50) [2] | IC50 [2] [µM] | inhibition at 20 µM [2] [%] | Mean (Rho 123 fluorescence) ([3]; 1× IC50, 72 h) | Variation (Variation Index, VI = (MT − MC)/MC) ([3]; 1× IC50, 72 h) | Mean (Rho 123 fluorescence) ([3]; 2× IC50, 72 h) | Variation (Variation Index, VI = (MT − MC)/MC) ([3]; 2× IC50, 72 h) | Mitochondrial membrane depolarization (in words) ([3]; 1× and 2× IC50, 72 h) | Variability Index (VI), range [3]
1 | N#Cc1ccc2[nH]cc(/C=N/NC(=S)Nc3ccc(Cl)cc3)c2c1 [LT-75] | extensive damage to the plasma membrane and cytoskeleton | >7.1 | 10 to 14 | 100 | 1425 ± 106 | 1 ± 0.23 | 1000 ± 21 | 0.41 ± 0.05 |  | 
2 | S=C(N/N=C/c1c[nH]c2ncccc12)Nc1ccccc1 [LT-73] | disorganization of the plasma membrane, mitochondrial swelling, chromatin condensation, and the presence of numerous vacuoles | >5.8 | 10 to 14 | 100 | 658 ± 9 | −0.07 ± 0.05 | 697 ± 7 | −0.02 ± 0.03 | depolarization of the mitochondrial membrane; also recorded: induced a alteration in Δψm | −0.02 to −0.07
3 | C[C@@H]1[C@H](O)[C@@H](C)/C=C/C=C/C=C/C=C/C=C/C=C/C=C/[C@H](O[C@@H]2O[C@H](C)[C@@H](O)[C@H](N)[C@@H]2O)C[C@@H]2O[C@](O)(C[C@@H](O)C[C@@H](O)[C@H](O)CC[C@@H](O)C[C@@H](O)CC(=O)O[C@H]1C)C[C@H](O)[C@H]2C(=O)O [Amphotericin B, reference compound] | membrane rupture, chromatin condensation, and mitochondrial swelling | 350 | 0.04 | 100 | 213 ± 1 | −0.70 ± 0.01 | 193 ± 3 | −0.73 ± 0.02 |  | −0.018 to −0.73
